Test results published in patent US8759348B2, “Use of 4-(pyrrolidin-1-yl)quinoline compounds to kill clinically latent microorganisms” (Helperby Therapeutics Limited, priority 2007, dated 2014).

Assays:
[1] = system: Coagulase negative staphylococcus stationary phase bacteria; assay: Bactericidal activity against stationary-phase cultures (CFU counts); type: cell-based, Coagulase negative staphylococcus (CNS); conditions: 5 μg/mL of test compound
[2] = system: Enterococcus stationary phase bacteria; assay: as above; type: cell-based; conditions: 5 μg/mL of test compound
[3] = system: Streptococcus pneumoniae stationary phase bacteria; assay: as above; type: cell-based; conditions: 10 μg/mL of test compound
[4] = system: E. coli K12 stationary phase bacteria; assay: as above; type: cell-based, Escherichia coli K12; conditions: 10 μg/mL of test compound
[5] = system: Propionibacterium acnes stationary phase bacteria; assay: as above; type: cell-based; conditions: 10 μg/mL of test compound
[6] = system: stationary phase Candida albicans; assay: Activity against stationary-phase cultures of Candida albicans (CFU counts); type: cell-based; conditions: 10 μg/mL of test compound
[7] = system: methicillin-resistant Staph. aureus stationary phase bacteria; assay: Bactericidal activity against stationary-phase cultures (CFU counts); type: cell-based, Methicillin resistant S. aureus (MRSA); conditions: MRSA stationary phase, 10 μg/mL of test compound
[8] = system: Streptococcus agalactiae stationary phase bacteria; assay: as above; type: cell-based; conditions: 10 μg/mL of test compound
[9] = system: stationary phase Mycobacterium tuberculosis; assay: Bactericidal activity against M. tuberculosis stationary-phase cultures (Model 1); type: cell-based; conditions: 10 μg/mL of test compound
[10] = system: Staph. aureus stationary phase bacteria; assay: Bactericidal activity against stationary-phase cultures (CFU counts); type: cell-based, Staphylococcus aureus; conditions: 5 μg/mL of test compound
[11] = system: Streptococcus pyogenes stationary phase bacteria; assay: as above; type: cell-based; conditions: 20 μg/mL of test compound

Question: For `Cc1cc(N2CCC(c3ccccc3)C2)c2cc(NC(=O)c3cc(C)[nH]n3)ccc2n1.Cl` (centres unmarked) [Example 22, 5-Methyl-1H-pyrazole-3-carboxylic acid [2-methyl-4-(3-phenylpyrrolidin-1-yl)-quinolin-6-yl]amide hydrochloride], which log kill [1] is on record?
Answer: Its log kill is 5.99.

Question: And the log kill [2]?
Answer: The log kill was 3.22.

Question: Which results are given for `Cc1cc(N2CCC(c3ccccc3)C2)c2cc(Oc3ccccc3)ccc2n1.Cl` (centres unmarked) [Example 39, 2-Methyl-6-phenoxy-4-(3-phenylpyrrolidin-1-yl)quinoline hydrochloride]?
Answer: log kill [3]: 7.32; log kill [4]: 6.80; log kill [5]: 6.34

Question: Which log kill [6] does the source give for `Cc1cc(N2CCC(Cc3ccccc3)C2)c2cc(Oc3ccccc3)ccc2n1.Cl` (centres unmarked) [Example 8, 4-(3-Benzylpyrrolidin-1-yl)-2-methyl-6-phenoxyquinoline hydrochloride] here?
Answer: The log kill was 3.70.

Question: And the log kill [7]?
Answer: Its log kill is 6.34.

Question: What about the log kill [8] of the same compound?
Answer: The log kill was 0.97.

Question: What about the log kill [9] of the same compound?
Answer: Its log kill is 5.76.

Question: For `Cc1cc(N2CCC(c3ccccc3)C2)c2cc(OCCc3ccccc3)ccc2n1.Cl` (centres unmarked) [Example 6, 2-Methyl-6-phenethyloxy-4-(3-phenylpyrrolidin-1-yl)quinoline hydrochloride], which log kill [10] is on record?
Answer: The log kill was 6.16.

Question: For `COc1ccc(C2CCN(c3cc(C)nc4ccc(Oc5ccccc5)cc34)C2)cc1.Cl` (centres unmarked) [Example 9, 4-[3-(4-Methoxyphenyl)pyrrolidin-1-yl]-2-methyl-6-phenoxyquinoline hydrochloride], which log kill [11] is on record?
Answer: The log kill was 6.42.
